Source: US20220364056A1, “SHORT-CHAIN FATTY ACID PENTANOATE AS ENHANCER FOR CELLULAR THERAPY AND ANTI-TUMOR THERAPY” (PHILIPPS-UNIVERSITÄT MARBURG, priority 2019, published 2022)

Legend:
[1] = tested on: STAT5; experiment: IL-2-induced phosphorylation of STAT5 in CTLs, flow cytometry; format: cell-based, murine; settings: CTLs generated with pentanoate 3 day, IL-2 50 U/ml
Excerpt: (A) experimental setup for investigating CTL persistence in vivo is shown. (B-D) The frequency (B, C) and total cell numbers (D) of transferred T cells (WT CD45.1^+ CTLs, WT CD45.2^+ pentanoate-treated CTLs and Foxp3^+CD45.2^+ Tregs from FIR×tiger mice) in Rag1-deficient mice on days 15 after the adoptive transfer are shown. The co-transferred Foxp3^−CD4^+ cells were excluded from the gate (B, C). In D, n=_3 mice/group/experiment, data from 2 pooled independent experiments are shown. (E) The CFSE label of transferred T cells (WT CD45.1 CTLs, WT CD45.2^+ pentanoate-treated CTLs and CD45.2^+CD4^+ T cells) in Rag1-deficient mice on days 4 after the adoptive transfer are shown (n=3 mice/group/experiment, data pooled from 2 independent experiments are shown). […] (G and H) Frequencies and cell numbers of CD25^+ CD8^+ T cells were analysed by flow cytometry on day 15 after transfer of control CTLs (CD45.1^+) and pentanoate-treated CTLs (CD45.2^+) into Rag1-deficient mice (n=3 mice/group/experiment, data pooled from 2 independent experiments). […] The phosphorylated (p)-STAT5 levels were analysed by flow cytometry (n=5, performed in 3 independent experiments). (J) The secretion of IL-2 in pentanoate-treated CTLs cultured for indicated time points was measured by ELISA (n=4, pooled from 2 independent experiments).

[2] = tested on: CTLs; experiment: extracellular acidification rate (ECAR) of CTLs; format: cell-based, murine; settings: 2.5 mM pentanoate, three days
Method: (A and B) CTLs were cultured in medium containing 1.0% FCS and treated with pentanoate (2.5 mM) for three days. Representative histogram plots and bar graphs indicate the phoshorylated levels of mTOR (A) and S6 ribosomal protein (B), respectively (n=3 pooled from three independent experiments). (C and D) Human CTLs were cultured in medium containing 1.0% serum and treated with indicated HDACi for three days. Representative histogram plots and bar graphs indicate the phoshorylated levels of mTOR (C) and S6 ribosomal protein (D), respectively (data points represent four individual healthy donors) (E) Measurement of extracellular acidification rate (ECAR) for in vitro generated murine CTLs cultured with or without 2.5 mM pentanoate for three days. ECAR was measured under basal conditions and in response to glucose (10 mM), oligomycin (2 μM), and 2-deoxy-glucose (2-DG, 100 mM). One of three independent experiments is shown.

[3] = target: HDAC2 (Homo sapiens, UniProt Q92769); experiment: HDAC inhibition of the recombinant HDAC2 isoform; format: biochemical; settings: supernatants; different concentrations of SCFAs
Sequence of HDAC2 (Q92769 whole entry, species assumed, canonical isoform): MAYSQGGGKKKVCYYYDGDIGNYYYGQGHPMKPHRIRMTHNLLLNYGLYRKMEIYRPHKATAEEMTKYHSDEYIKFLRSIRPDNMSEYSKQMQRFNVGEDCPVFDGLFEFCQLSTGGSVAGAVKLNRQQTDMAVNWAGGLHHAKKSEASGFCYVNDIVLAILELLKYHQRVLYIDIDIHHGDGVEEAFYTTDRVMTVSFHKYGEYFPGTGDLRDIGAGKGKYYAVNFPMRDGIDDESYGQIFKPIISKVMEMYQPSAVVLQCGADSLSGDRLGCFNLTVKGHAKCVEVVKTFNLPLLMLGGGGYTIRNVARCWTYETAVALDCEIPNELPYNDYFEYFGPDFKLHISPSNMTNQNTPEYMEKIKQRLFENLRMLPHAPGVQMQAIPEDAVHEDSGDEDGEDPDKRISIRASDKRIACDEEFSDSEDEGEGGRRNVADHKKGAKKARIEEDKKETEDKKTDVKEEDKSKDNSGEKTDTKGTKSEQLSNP
Method: (A) The production of SCFAs, branched-chain fatty acids (BCFAs) and medium-chain fatty acids (MCFAs) by 16 human commensals was measured by GC-MS. All bacteria were grown in vitro until stationary growth phase before the measurement of fatty acids in supernatants. (B and C) HDAC inhibition of recombinant class I and class II HDAC isoforms by cell-free supernatants derived from 16 members of human commensal community. Significance was tested against YCFA medium. (D) Impact of bacterial SCFAs, BCFAs and MSCFAs on the activity of class I and II HDAC enzymes. TSA was used as a control pan-HDAC inhibitor.

## CCCCC(=O)O [pentanoate]
[1]
  STAT5 activity in response to IL-2: stronger STAT5 activity
[2]
  extracellular acidification rate (ECAR): increased
[3]
  inhibition of the HDAC2 isoform: strongly inhibited
